Reference: article PMC11436758, “Computer-aided drug design to generate a unique antibiotic family” (Nature Communications, 2024)
≈ marks a conversion by molar mass, not a printed value. Where “and” joins values, the source holds several entries; their conditions need not be identical. Equal values may be shown once.

Legend:
MRSA (ATCC 33591) = assay: Mouse cellulitis model of infection, topical treatment; format: in vivo, SKH1 mice; details: for Wound size (mm2), Mean / Wound size (mm2): Fig 2d
Protocol: SKH1 mice from Charles River were used and male and female mice were utilized, sample size prevented disaggregation of data by sex. Mice were housed with a 12 h light and dark cycle at 21 °C in relative humidity of 40–50%. Investigators were blinded to group allocation, data collection, and data analysis. The formulation for delivery of DNM0547 was Glaxal base (WellSpring Pharmaceutical Canada Corp., Oakville, Canada). Formulation was performed by dissolving compound in Glaxal base to give final concentrations of 2% DNM0547 compound (w/v). MRSA (ATCC #33591) were grown to mid-log phase, concentrated by centrifugation and suspended in sterile PBS at a stock concentration of 2 × 10^11 CFU/mL.
Four week old mice were anesthetized and injected intradermally with 1 × 10^8 CFU/mouse. 4 h after injection, mice were treated with 50 μl 2% DNM0547 cream, or excipient alone. Lesion dimensions were recorded daily for seven days. Food and water were given ad libidum. On day seven, mice were euthanized and the lesion area aseptically removed to 3 mL sterile PBS. The samples were homogenized and serial dilutions were plated on blood agar and incubated at 37 °C to determine CFU. The mouse model of skin infection was performed and evaluated with Washington Biotechnology Inc (Baltimore, MD, USA).

[1] = system: E. coli D22 over-expressing AcpS; assay: MIC upon IPTG-induced over-expression of MBP-AcpS (MBP only as control); format: cell-based
Text: Over-expression of AcpS was confirmed by western blot (Supplementary Fig. 6b). This is consistent with inhibition of AcpS being the major mechanism of action for the antimicrobial activity of DNM0547.
Supplementary Figure 6. Increased expression of AcpS increases the MIC of DNM0547. a , the minimum inhibitory concentration (MIC; µg/ml) of the D22 strain of E. coli upon expression of plasmid borne maltose binding protein (MBP) AcpS from an IPTG inducible promoter versus just over-expression of MBP only. The D22 strain of E. coli has a porous outer membrane due to a point mutation in the lpxC gene enabling some compounds to enter the cell that can not permeate wild type E. coli. AcpS is expressed as a fusion with MBP. MICs were determined upon IPTG induction of MBP-AcpS with expression of just MBP used as control. b, western blot against MBP (New England Biolabs E8032S, 1:1000 dilution) to assess expression; IPTG induced expression of MBP and MBP-AcpS at the expected M Wts. c, equal protein was added from each E. coli protein extract used for the western blot. Ponceau stain of the membrane to assess protein loading and transfer.
(also on this page, place not known: DH5a BL 21 D 22 pMAL pMAL pAcpS pAcpS pMAL pMAL pAcpS pAcpS pMAL + pMAL pAcpS + pAcpS - - + - + - + - + - a, AcpS MBP M Compound MBP MBP-AcpS DNM0547 32 256) […]

[2] = 2% cream for 7 days, versus vehicle control

With `CC(C)c1cc(Cl)ccc1-c1cc(-c2nnn[nH]2)c(-c2ccc(Cl)cc2C(C)C)s1` [DNM0547] as the molecule, how does the “reduction in wound size” value (MRSA (ATCC 33591); [2]) read?
Its value is 4 fold.

What about the “reduction of bacterial load” value (MRSA (ATCC 33591); [2]) of the same molecule?
The value was greater than 98%.

What about the CFUs (MRSA (ATCC 33591); Fig 2e, individual animals) of the same molecule?
Its CFUs is 66 CFUs and 3900 CFUs and 0 CFUs (2×) and 57 CFUs.

What about the “Wound size (mm2), Mean” value (MRSA (ATCC 33591); Day 1) of the same molecule?
Its value is 14.643 mm2.

What about the “Wound size (mm2), Mean” value (MRSA (ATCC 33591); Day 2) of the same molecule?
Its value is 24.6313 mm2.

And the “Wound size (mm2), Mean” value (MRSA (ATCC 33591); Day 3)?
Its value is 14.2828 mm2.

What about the “Wound size (mm2), Mean” value (MRSA (ATCC 33591); Day 4) of the same molecule?
Its value is 14.2975 mm2.

And the “Wound size (mm2), Mean” value (MRSA (ATCC 33591); Day 5)?
The value was 12.6205 mm2.

What about the “Wound size (mm2), Mean” value (MRSA (ATCC 33591); Day 6) of the same molecule?
The value was 11.8387 mm2.

And the “Wound size (mm2), Mean” value (MRSA (ATCC 33591); Day 7)?
The value was 14.2246 mm2.

And the “Wound size (mm2)” value (MRSA (ATCC 33591); individual animals, Day 1)?
Its value is 12.5374 mm2 and 14.3799 mm2 and 14.54 mm2 and 15.8884 mm2 and 15.87 mm2.

And the “Wound size (mm2)” value (MRSA (ATCC 33591); individual animals, Day 2)?
Its value is 25.0932 mm2 and 30.8908 mm2 and 21.02 mm2 and 14.3128 mm2 and 31.84 mm2.

And the “Wound size (mm2)” value (MRSA (ATCC 33591); individual animals, Day 3)?
The value was 14.5538 mm2 and 21.2799 mm2 and 9.59 mm2 and 10.8726 mm2 and 15.12 mm2.

And the “Wound size (mm2)” value (MRSA (ATCC 33591); individual animals, Day 4)?
The value was 15.4052 mm2 and 19.652 mm2 and 13.70 mm2 and 11.5756 mm2 and 11.16 mm2.

And the “Wound size (mm2)” value (MRSA (ATCC 33591); individual animals, Day 5)?
Its value is 9.8797 mm2 and 13.6551 mm2 and 8.00 mm2 and 10.1736 mm2 and 21.40 mm2.

What about the “Wound size (mm2)” value (MRSA (ATCC 33591); individual animals, Day 6) of the same molecule?
Its value is 12.7154 mm2 and 14.2046 mm2 and 11.72 mm2 and 7.547 mm2 and 13.01 mm2.

What about the “Wound size (mm2)” value (MRSA (ATCC 33591); individual animals, Day 7) of the same molecule?
The value was 15.755 mm2 and 18.619 mm2 and 16.44 mm2 and 5.851 mm2 and 14.46 mm2.

What about the MIC ([1]; E. coli D22, IPTG-induced MBP only (control)) of the same molecule?
Its MIC is 32 µg/mL (≈ 70 µM).

What about the MIC ([1]; E. coli D22, IPTG-induced MBP-AcpS) of the same molecule?
The MIC was 256 µg/mL (≈ 560 µM).

What about the MIC ([1]; Escherichia coli, E. coli D22 with over-expression of AcpS) of the same molecule?
The MIC was 256 µg/mL (≈ 560 µM).

And the MIC ([1]; Escherichia coli, Suppl Fig 6a, MBP (control), replicates)?
The MIC was 32 µg/mL (≈ 70 µM).

What about the MIC ([1]; Escherichia coli, Suppl Fig 6a, MBP-AcpS, replicates) of the same molecule?
Its MIC is 256 µg/mL (≈ 560 µM).

What about the “MIC” value ([1]; Suppl Fig 6a, MBP (control), replicates) of the same molecule?
The value was 32 µg/mL (≈ 70 µM).

And the “MIC” value ([1]; Suppl Fig 6a, MBP-AcpS, replicates)?
Its value is 256 µg/mL and >256 µg/mL.
